# System: auditory nerve compound action potential (CAP)
# Test: Auditory nerve CAP after systemic (intraperitoneal) delivery
# Assay type: in vivo, guinea pig
# Conditions: for effect on CAP thresholds: 1 to 22 kHz; for CAP amplitude reduction, on average: after ~1 h, 8 kHz tone bursts at 90 dB SPL
# Description: This study utilized 21 NIH-strain, pigmented guinea pigs weighing from 400 to 650 g, in accordance with policies and protocols approved by the Institutional Animal Care and Use Committee at Washington University in St. Louis (20180133, 20190035). Animals were anesthetized with intraperitoneal (IP) injection of 100 mg/kg sodium thiobutabarbital (Inactin, Sigma, St. Louis, MO). Once anesthetized, the fur from the head and neck was shaved and a tracheal cannula was placed. The animal was maintained on 0.8–1.2% isoflurane in oxygen using a mechanical ventilator. The ventilator's tidal volume was adjusted to maintain a 5% end-tidal CO2 which was monitored with a CapnoTrue AMP (Bluepoint Medical, Zevenaar, The Netherlands). Body temperature was maintained at 38 degrees C with a DC-powered heating blanket-rectal thermometer (Model 50-7079; Harvard Apparatus). Heart rate and oxygen saturation were monitored with a pulse oximeter (Surgivet, Waukesha, WI). The auditory bulla was exposed ventrally for placement of recording electrodes. The jugular vein was cannulated to maintain hydration with 0.5 mL per hour of Lactated Ringer's solution. To prevent middle ear muscle contractions, vecuronium bromide (0.2 mg/kg) was administered immediately prior to data collection and every 1.5 h thereafter.
# As described for local delivery, cochlear output was measured similarly for systemic delivery of IEM-1460 and IEM-1925. Complete details have been previously published (Salt et al., [2013]). Briefly, acoustic tone bursts were applied in a closed sound system. The plastic extension tube of the acoustic assembly (Etymotic Research, ER-10 C) was coupled to the end of the hollow ear bar with the tube tip positioned ~1.5 mm from the tympanic membrane. Stimulus generation and data collection were performed with Tucker Davis System 3 hardware controlled by a custom written program (Microsoft Visual Basic). Stimulus waveforms were routed through a programmable Tucker Davis PA5 attenuator and HB7 headphone amplifier. Stimuli were calibrated from 0.125 to 26 kHz in 1/4 octave steps. A CAP audiogram was obtained at the beginning and end of the experiment. Up to 60 min of baseline audiometric data were obtained prior to drug delivery. Data with baseline changes >20% were excluded. A 13-level tone probe series, at selected frequencies, was repeated at 2-min intervals. Distortion product otoacoustic emissions (DPOAEs) were measured using an ER10C probe system. The two primary tone frequencies were set at 6 kHz (f1) and 7.4 kHz (f2), for a f2/f1-ratio of 1.23, with levels of 65 dB SPL (L1) and 55 dB SPL (L2).
# At each probe frequency, CAP peak-to-peak amplitudes were measured from the first trough (N1) to the first peak (P1). Latencies were measured to the trough of N1. Cochlear output was compared before and after intraperitoneal drug delivery. The data were tested for normality using a Kolmogorov-Smirnov test. For CAP amplitude and latency, significance was assessed with the Mann-Whitney U-test. The Wilcoxon signed rank test was used to assess CAP threshold. Friedman test was used to compare concentrations of drug between perilymph and CSF. A p < 0.05 was considered statistically significant. A Bonferroni correction was used when performing multiple comparison testing. All statistical tests were performed with IBM SPSS Statistics Version 27 (SPSS Inc., Chicago, IL, United States).
# After at least 30 min of baseline data, 1 mL of Lactated Ringer's was injected into the peritoneal space of the guinea pig as a vehicle control. Then, 13.5 mg/kg IEM-1460 or 8 mg/kg IEM-1925 in Lactated Ringer's was injected into the peritoneal space of the guinea pig. The entire experiment took ~3 h to complete: 1 h for anesthetic induction and surgery, 30 min for sound calibration and CAP threshold measurements, and 2 h for drug delivery, DPOAE and CAP measurements. After collection of perilymph and CSF, the animal was euthanized via saturated KCl delivered directly into the jugular vein. […]
# [1] = IP injection: IEM-1460 13.5 mg/kg, IEM-1925 8 mg/kg
# [2] = IP injection: IEM-1460 13.5 mg/kg, IEM-1925 8 mg/kg, N = 4
Structure (SMILES),"effect on CAP latency (IP 13.5 mg/kg, all tone levels, N = 4)","mean difference between pre- and post-injection CAP amplitudes (IP 13.5 mg/kg, exemplary recording, across tone levels)","relative reduction of CAP amplitude (IP 13.5 mg/kg, exemplary recording, probes of 40–90 dB SPL)",delay from IP injection to start of CAP reduction [1] [min],effect on CAP thresholds [2],"CAP amplitude reduction, on average [2]",CAP reduction from baseline [1] [%]
C[N+](C)(C)CCCCCNCC12CC3CC(CC(C3)C1)C2 [IEM-1460],no statistically significant difference,19.1–269 μV,~ 50%,20 to 50,not statistically different,~ 20%,
NCCCCCNC1(c2ccccc2)CCCCC1 [IEM-1925],,,,,minimal effect,~ 20%,> 50

# — publication PMC8287724, “Reducing Auditory Nerve Excitability by Acute Antagonism of Ca^2+-Permeable AMPA Receptors” (Frontiers in Synaptic Neuroscience, 2021)
